Data: BindingDB's records for PubMed 11916140 (Universit&Agrave, 2001)

Experiments:
Assay in all cases: Inhibition Assay
Conditions in all cases: pH 7.4; 25 °C
[1] = target: T1, Carbonic anhydrase 4 (Bos taurus, UniProt Q95323)
T1 sequence (Q95323 whole entry): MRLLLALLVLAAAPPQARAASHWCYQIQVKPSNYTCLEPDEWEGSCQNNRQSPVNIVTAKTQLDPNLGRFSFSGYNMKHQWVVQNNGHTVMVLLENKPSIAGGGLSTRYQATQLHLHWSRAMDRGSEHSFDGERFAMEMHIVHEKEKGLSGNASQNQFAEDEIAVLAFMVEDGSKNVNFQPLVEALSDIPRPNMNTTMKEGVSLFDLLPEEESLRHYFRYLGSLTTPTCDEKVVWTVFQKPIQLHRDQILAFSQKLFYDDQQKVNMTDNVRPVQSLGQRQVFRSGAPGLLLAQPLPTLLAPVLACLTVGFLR
Text: (§1) Inhibition assay using human Carbonic anhydrase I and II and bovine carbonic anhydrase IV.

[2] = target: Carbonic anhydrase 2 (Homo sapiens, UniProt P00918)
Text: as §1

[3] = target: Carbonic anhydrase 1 (Homo sapiens, UniProt P00915)
Sequence of Carbonic anhydrase 1 (P00915 whole entry): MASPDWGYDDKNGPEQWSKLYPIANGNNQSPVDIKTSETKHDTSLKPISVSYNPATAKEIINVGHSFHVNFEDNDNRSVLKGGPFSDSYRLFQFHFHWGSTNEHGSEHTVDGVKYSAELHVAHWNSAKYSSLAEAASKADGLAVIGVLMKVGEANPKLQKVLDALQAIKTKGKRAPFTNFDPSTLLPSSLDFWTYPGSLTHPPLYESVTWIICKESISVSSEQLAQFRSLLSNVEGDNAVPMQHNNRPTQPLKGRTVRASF
Text: as §1

Ki [1]	Ki [2]	Ki [3]	SMILES
65 nM	24 nM	> 1000 nM	NS(=O)(=O)NCc1csc(-c2ccc(S(=O)(=O)c3ccc(Cl)cc3)cc2)n1 [2-[4-(4-Chlorophenylsulfonyl)-Phenyl}-thiazole-4-yl-methyl-sulfamide, 2b]
87 nM	33 nM	> 1000 nM	NS(=O)(=O)OCc1csc(-c2ccc(S(=O)(=O)c3ccccc3)cc2)n1 [2-[4-(Phenylsulfonyl)-Phenyl}-thiazole-4-yl-methyl-sulfamate, 3a]
83 nM	28 nM	> 1000 nM	NS(=O)(=O)NCc1csc(-c2ccc(S(=O)(=O)c3ccccc3)cc2)n1 [2-[4-(Phenylsulfonyl)-Phenyl}-thiazole-4-yl-methyl-sulfamide, 2a]

The next lines start with the molecule.

SMILES	Ki [1]	Ki [2]	Ki [3]
NS(=O)(=O)OCc1csc(-c2ccc(S(=O)(=O)c3ccc(Br)cc3)cc2)n1 [2-[4-(4-Bromophenylsulfonyl)-Phenyl}-thiazole-4-yl-methyl-sulfamate, 3c]	54 nM	21 nM	> 1000 nM
NS(=O)(=O)NCc1csc(-c2ccc(S(=O)(=O)c3ccc(Br)cc3)cc2)n1 [2-[4-(4-Bromophenylsulfonyl)-Phenyl}-thiazole-4-yl-methyl-sulfamide, 2c]	50 nM	16 nM	> 1000 nM
NS(=O)(=O)OCc1csc(-c2ccc(S(=O)(=O)c3ccc(Cl)cc3)cc2)n1 [2-[4-(4-Chlorophenylsulfonyl)-Phenyl}-thiazole-4-yl-methyl-sulfamate, 3b]	66 nM	30 nM	> 1000 nM
